{
  "source": "patent US8409825B2",
  "about": "“Method for high-level secretory production of protein” (National Institute of Advanced Industrial Science and …, priority 2007, dated 2013)",
  "key": {"[1]": {"test_system": "O. minuta PMT4-deficient strain (ona98808 strain)", "conditions": "0.25 μM 1c (final concentration), FIG. 26", "procedure": "The antibody-producing strain was cultured in the following manner. With the use of 2× YP-P6-GG medium (the medium was prepared by dissolving 20 g of Difco yeast extract and 40 g of Bacto peptone in 900 ml of pure water, sterilizing the solution via steaming under pressure, and adding 100 ml of separately sterilized 10× phosphate buffer (pH 6.0) (1M KH2PO4, 0.15M (NH4)2SO4, 0.375N KOH), 10 ml of a separately sterilized 50% glucose solution, and 25 ml of separately sterilized 80% glycerine), 800 μl of 2× YP-P6-GG medium was introduced into a 96-deep well plate (Greiner, 780271), the strains were sowed with the use of a toothpick, and the top of the plate was sealed with CO2-permeable plate sealers (Greiner, 676051). […]\nYeast cells were removed from the culture product via centrifugation at 2,700×g and 4° C. for 5 minutes, and the resulting culture supernatant was designated as a sample of secreted antibody. The secreted and produced antibodies were subjected to quantitative assay via sandwich ELISA. […] After the protein was subjected to SDS-PAGE under reducing and non-reducing conditions, the separated protein was blotted to a PVDF membrane, and the antibody heavy chain and light chain were detected using Anti-human IgG (γ-chain specific) (Sigma, I-3382) and Goat anti human kappa b&f affinity purified (Bethyl, A-80-115A) as the primary antibodies. […]"}, "[2]": {"test_system": "S. cerevisiae ZUO1/YGR285C strain", "conditions": "control strain", "procedure": "The S. cerevisiae ZUO1/YGR285C strain was sowed in 5 ml of YPAD medium (YPD medium containing 0.04% adenine (Sigma)), and yeast cells resulting from overnight culture at 30° C. and 310 rpm were used.\nST medium (500 μl) (Yeast Nitrogen Base and Ammonium sulfate medium containing 2% glucose, 0.04% adenine, and 0.3M KCl and lacking uracil and leucine (Sigma)) was applied onto a 96-deep well plate (Greiner, 780271), the transformant was sowed with the use of a toothpick, the top of the plate was sealed with CO2-permeable plate sealers (Greiner, 676051), and culture was carried out at an agitation speed of 310 rpm, an amplitude of 50 mm, at 30° C. for 3 days. Control culture was carried out by applying 1 ml of YPAD medium to a 96-deep well plate (Greiner, 780271). […] The culture solution that had been cultured in ST medium was sowed to a final concentration of 5%, and the top of the plate was sealed with CO2-permeable plate sealers (Greiner, 676051). Thereafter, culture was carried out at an agitation speed of 310 rpm, an amplitude of 50 mm, at 30° C. for 3 days. The culture supernatant was prepared from the culture solution and it was designated as a sample containing an antibody secreted and produced by yeast. […]"}, "[3]": {"test_system": "antibody-producing yeast strain (ona02306 strain)", "conditions": "for amount of antibody production: control 0.8 mg/l, FIG. 5", "procedure": "Control culture was carried out at an agitation speed of 310 rpm, an amplitude of 50 mm, at 30° C. for 2 days, 100 μl of 2× YP-P6-GG medium was added, and 100 μl of 2× YP-P6-GG medium was further added on day 3. In the case of culture involving single addition of a rhodanine-3-acetic acid derivative 1c, culture was carried out at an agitation speed of 310 rpm, an amplitude of 50 mm, at 30° C. for 2 days, 100 μl of 2× YP-P6-GG medium was added, and 100 μl of 2× YP-P6-GG medium containing 20 μM of 1c was further added on day 3. In the case of culture involving addition of a rhodanine-3-acetic acid derivative 1c twice, culture was carried out at an agitation speed of 310 rpm, an amplitude of 50 mm, at 30° C. for 2 days, 100 μl of 2× YP-P6-GG medium containing 20 μM of 1c was added, and 100 μl of 2× YP-P6-GG medium containing 20 μM of 1c was further added on day 3.\nYeast cells were removed from the culture product via centrifugation at 2,700×g and 4° C. for 5 minutes, and the resulting culture supernatant was designated as a sample of secreted antibody. The secreted and produced antibodies were subjected to quantitative assay via sandwich ELISA. TRAIL receptor proteins that were antigens of the anti-TRAIL receptor antibodies were adsorbed on a 96-well plate, the sample of secreted antibody was added, and detection was carried out using a peroxidase-labeled human IgG specific Fc antibody (Peroxidase-labeled affinity purified antibody to human IgG (Fc) (KPL, 04-10-20)) and the ABTS peroxidase substrate (KPL, 50-66-01).\nWestern blotting was carried out as follows. After the protein was subjected to SDS-PAGE under reducing and non-reducing conditions, the separated protein was blotted to a PVDF membrane, and the antibody heavy chain and the light chain were detected using Anti-human IgG (γ-chain specific) (Sigma, I-3382) and Goat anti human kappa b&f affinity purified (Bethyl, A-80-115A) as the primary antibodies. Peroxidase conjugated affinity purified anti-goat IgG (H&L) (Rabbit) (Rockland, #605-4313) was used as the secondary antibody. […]"}},
  "note": "Where two headings read alike, the source gives them in different places.",
  "data": [
    {"substance": "5-[[3,4-(1-phenylmethoxy)phenyl]methylene]-4-oxo-2-thioxo-3-thiazolidineacetic acid [rhodanine-3-acetic acid derivative 1c]", "values": [
      {"measurement": "improvement of the amount of production", "setting": "[1]", "result": "approximately 13%"},
      {"measurement": "increase of amount of antibody secretory production when addition of an O-sugar chain was suppressed", "setting": "[2]; 1c final concentration 10 μM, versus control culture", "result": "approximately 2.5 times"},
      {"measurement": "amount of antibody secretory production", "setting": "[2]; O-sugar chain addition suppressed (1c final concentration 10 μM), without 1c 3.9 ng/ml, FIG. 14", "result": 10, "unit": "ng/mL"},
      {"measurement": "high-molecular-weight antibody heavy chain (Western blot, reducing electrophoresis)", "setting": "[3]; addition of PMT inhibitors to culture, FIG. 6", "result": "decreased"},
      {"measurement": "amount of antibody production", "setting": "[3]; addition of PMT inhibitors twice (100 μl medium containing 20 μM 1c on day 2 and day 3)", "result": "approximately 1.9 mg/l"},
      {"measurement": "amount of antibody production", "setting": "[3]; single addition of PMT inhibitors (100 μl medium containing 20 μM 1c on day 3)", "result": "approximately 1.7 mg/l"}
    ]}
  ]
}
